Like-named read-outs stand apart in the source and are kept apart here.
Legend:
[1] = test system: convulsions induced by AMPA; assay: Anticonvulsant action induced by AMPA; type: in vivo, mice of ddy strain; details: 25 mg/kg orally, male ddy mice; AMPA continuously injected into lateral ventricle 30 minutes or 1 hour after
Description: A test compound was suspended in a 0.5% methyl cellulose solution or in sesame oil and was orally administered (25 mg/kg) to male mice of ddy strain. After 30 minutes or 1 hour from the oral administration, AMPA was continuously injected ([…]/5 μl/minute/mouse) into lateral ventricle to induce the convulsions. The effect was judged by a time-extending action until the convulsion takes place by a continuous injection of AMPA.

[2] = test system: experimental autoimmune encephalomyelitis; assay: Experimental autoimmune encephalomyelitis model; type: in vivo; details: p.o. 5, 10 and 20 mg/kg, 10-16 days post immunisation, female Lewis rats, versus vehicle
Description: Female Lewis rats (205±10 g) obtained from Charles River, Kent UK, were housed in pairs under environmentally controlled conditions (6:00 a.m.-6:00 p.m. light/dark cycle; 22-24° C.; 45-55% humidity) and allowed free access to food and water. Experimental groups consisted of 9-12 animals. Rats were immunised in each hind foot with 20-50 μl of inoculum containing 50 μg guinea pig myelin basic protein (MBP; final concentration 2 mg/ml), emulsified in Freund's complete adjuvant (CFA; Sigma, UK) containing Mycobacterium tuberculosis H37Ra (final concentration 5.5 mg/ml; Difco Laboratories, UK). Animals were weighed and monitored daily and clinical disease scored as (O) no clinical signs; (1) flaccid tail and weight loss; (2) hind limb hypotonia with further weight loss; (3) complete hind limb paralysis; (4) paraplegia and (5) death. […] During the period of compound administration (10-16 days post immunisation; dpi) animals were scored 15 h after injection of vehicle or compound to avoid any acute effect of treatment on disease score. Compounds were dissolved/suspended in 0.5% methyl cellulose using a hand held Polytron homogeniser (PT1200; 2 min). Rats were dosed p.o. with either methyl cellulose vehicle (2.5 ml/kg) or compound at 5, 10 and 20 mg/kg. Results: the compound of the invention is improved in view of experimental autoimmune encephalomyelitis.

[3] = Table 1, primary culture of rat embryo cerebral cortex nerve cells, 2 μM AMPA, 1 μM MK-801
[4] = Table 2, suppression of AMPA-induced calcium influx into nerve cells
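Wherever IC50 is given: primary rat embryonic cortical neurons grown on an astrocyte layer in 96-well plates, used after at least 8 to 10 days in culture, Fura2-AM fluorescence ratio at 340/380 nm excitation.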

SMILES | anticonvulsant action (time-extending action until the convulsion takes place) [1] | effect on experimental autoimmune encephalomyelitis (clinical disease score) [2] | IC50 (AMPA receptor; [3]) | IC50 (AMPA receptor; [4])
O=c1c(-c2cccnc2F)cc(-c2ccccn2)cn1-c1ccccc1 [Example 76, 3-(2-Fluoro-3-pyridyl)-5-(2-pyridyl)-1-phenyl-1,2-dihydropyridin-2-one] | significant anticonvulsant action | superior effect to the vehicle-administered group | 100 nM | 
N#Cc1ccccc1-c1cc(-c2ncccn2)cn(-c2ccccc2)c1=O [Example 164, 3-(2-Cyanophenyl)-1-phenyl-5-(2-pyrimidinyl)-1,2-dihydropyridin-2-one] | significant anticonvulsant action | superior effect to the vehicle-administered group |  | 80 nM
N#Cc1ncccc1-c1cc(-c2ncccn2)cn(-c2ccccc2)c1=O [Example 264, 3-(2-Cyanopyridin-3-yl)-1-phenyl-5-(2-pyrimidinyl)-1,2-dihydropyridin-2-one] | significant anticonvulsant action | superior effect to the vehicle-administered group |  | 50 nM
O=c1c(-c2cccnc2F)cc(-c2ncccn2)cn1-c1ccccc1 [Example 262, 3-(2-Fuluoropyridin-3-yl)-1-phenyl-5-(2-pyrimidinyl)-1,2-dihydropyridin-2-one] | significant anticonvulsant action | superior effect to the vehicle-administered group |  | 300 nM
N#Cc1ccccc1-c1cc(-c2ccccn2)cn(-c2ccccc2)c1=O [Example 7, 3-(2-Cyanophenyl)-5-(2-pyridyl)-1-phenyl-1,2-dihydropyridin-2-one] | significant anticonvulsant action | superior effect to the vehicle-administered group | 100 nM | 
N#Cc1ccccc1-c1cc(-c2ccccn2)cn(-c2cccnc2)c1=O [Example 32, 3-(2-Cyanophenyl)-5-(2-pyridyl)-1-(3-pyridyl)-1,2-dihydropyridin-2-one] | significant anticonvulsant action | superior effect to the vehicle-administered group | 100 nM | 
N#Cc1ccccc1-c1cc(-c2ccccn2)cn(-c2cccc(N)c2)c1=O [Example 9, 3-(2-Cyanophenyl)-5-(2-pyridyl)-1-(3-aminophenyl)-1,2-dihydropyridin-2-one] | significant anticonvulsant action |  | 30 nM | 
N#Cc1ccccc1-c1cc(-c2ncccn2)cn(-c2cccnc2)c1=O [Example 261, 3-(2-Cyanophenyl)-1-(3-pyridyl)-5-(2-pyrimidinyl)-1,2-dihydropyridin-2-one] | significant anticonvulsant action | superior effect to the vehicle-administered group |  | 80 nM
O=c1c(-c2ccccc2)cc(-c2ccccn2)cn1-c1ccccc1 [Example 61, 3-Phenyl-5-(2-pyridyl)-1-phenyl-1,2-dihydropyridin-2-one] | significant anticonvulsant action |  | 200 nM | 
COc1ccccc1-n1cc(-c2ccccn2)cc(-c2ccccc2C#N)c1=O [Example 126, 3-(2-Cyanophenyl)-5-(2-pyridyl)-1-(2-methoxyphenyl)-1,2-dihydropyridin-2-one] | significant anticonvulsant action |  | 300 nM | 
N#Cc1cccc(-c2cc(-c3ccccn3)cn(-c3ccccc3)c2=O)n1 [Example 78, 3-(6-Cyano-2-pyridyl)-5-(2-pyridyl)-1-phenyl-1,2-dihydropyridin-2-one] | significant anticonvulsant action |  | 1400 nM | 
N#Cc1ccccc1-c1cc(-c2cccc(N)n2)cn(-c2ccccc2)c1=O [Example 298, 5-(2-Aminopyridin-6-yl)-3-(2-cyanophenyl)-1-phenyl-1,2-dihydropyridin-2-one] | significant anticonvulsant action |  |  | 300 nM
N#Cc1sccc1-c1cc(-c2ccccn2)cn(-c2cccnc2)c1=O [Example 137, 3-(2-Cyanothiophen-3-yl)-5-(2-pyridyl)-1-(3-pyridyl)-1,2-dihydropyridin-2-one] | significant anticonvulsant action |  |  | 50 nM
O=c1c(-c2cccnc2F)cc(-c2ccccn2)cn1-c1cccnc1 [Example 139, 3-(2-Fluoro-3-pyridyl)-5-(2-pyridyl)-1-(3-pyridyl)-1,2-dihydropyridin-2-one] | significant anticonvulsant action | superior effect to the vehicle-administered group |  | 300 nM
N#Cc1ccccc1-c1cc(-c2cnccn2)cn(-c2ccccc2)c1=O [Example 199, 3-(2-Cyanophenyl)-1-phenyl-5-(2-pyrazyl)-1,2-dihydropyridin-2-one] | significant anticonvulsant action |  |  | 700 nM
O=c1c(-c2ccccc2Cl)cc(-c2ccccn2)cn1-c1cccnc1 [Example 128, 3-(2-Chlorophenyl)-5-(2-pyridyl)-1-(3-pyridyl)-1,2-dihydropyridin-2-one] | significant anticonvulsant action |  | 70 nM | 

— patent US6949571B2, “1,2-dihydropyridine compounds, process for preparation of the same and use thereof” (Eisai Co., Ltd., priority 2000, dated 2005)
